The record followed here is patent US10076481B2, “Compositions for treating periodontitis and dental calculus accumulation” (The Research Foundation for the State University of New York, priority 2016, dated 2018).

Holding throughout (format): cell-based
Experiment [1] concerns human salivary sediment. The experiment is described as follows: pH response of salivary sediment incubated with individual amino acids, with or without 28 mM urea. As to conditions: 37° C. On the procedure:
(§1) To obtain human salivary sediment for performance of the experiments described herein, paraffin wax (4.02 g) was chewed by human subjects (including some subjects 70+ years of age, where oral alkalinity is commonly more prevalent) to stimulate the flow of saliva. Prior to the experiment, the subjects fasted for 12 hours and abstained from oral hygiene for at least 24 hours (to enable spontaneous dental plaque bacterial growth and buildup on their teeth and other oral surfaces (Kleinberg. I., 1967, Arch. Oral Biol., 1457-1473)). As a result of this process, oral bacteria were dislodged by the inert paraffin wax from the teeth and oral soft tissue surfaces in the mouths of the human subjects. About 40 ml of whole saliva was then collected from each subject by expectoration into a 50 ml polypropylene centrifuge tube chilled by surrounding it with cracked ice (Korayem, M. R., Traudt, M., and Kleinberg, I., 1990; Sandham, H. J. and Kleinberg, I., 1973).
(§2) The saliva collected was centrifuged at 1740 g in an International Equipment Company clinical centrifuge (Needham Heights, Mass.) for 15 min. at 4° C. The supernatant was decanted and discarded. To wash the remaining bacterial sediment, 40 ml of ice-cold distilled water was added and mixed in a vortex mixer. The resulting sediment-water mixture was centrifuged at 1740 g for 15 min. at 4° C. The supernatant was again decanted and discarded. This bacterial sediment washing procedure was repeated twice. To the washed bacterial sediment, 10 ml of deionized water was added and the composition was then mixed briefly and thoroughly in a vortex mixer. The sediment was transferred to a 15 ml polypropylene centrifuge tube. The resulting suspension was centrifuged at 1740 g for 15 min. at 4° C. and the resulting supernatant was aspirated and discarded.
To the packed 1.0 ml of salivary sediment obtained after centrifugation, 1.0 ml of deionized water was added to make a 50% salivary sediment suspension for the preparation of the following standard incubation mixtures: salivary sediment at 16.7% (v/v), with and without added individual amino acids: serine, glycine, alanine, valine, and/or histidine, etc. at either a 90 or 120 mM concentration; and leucine, isoleucine, aspartic acid, glutamine, cysteine, cystine, lysine, arginine, tyrosine, phenylalanine, threonine, proline, methionine, tyrosine, glutamine, and/or asparagine, each at 9 mM. These mixtures were each prepared in the presence or absence of 28 mM urea, which has a relatively high pH.
The initial pH of the incubation mixtures was carefully adjusted to or near 7.0 with either 1.0 M NaOH or 1.0 M HCl. Each bacterial mixture was then incubated overnight in a water bath at 37° C. The pH of each mixture was then determined using a combined pH and reference electrode (Radiometer Analytical SAS, Villeurbanne, France) at pre-determined time intervals.

Experiment [2] deals with human salivary sediment. The experiment can be described thus: pH response of salivary sediment when initial pH was not adjusted to neutrality. The protocol:
Separately, incubation mixtures containing salivary sediment at 16.7% (v/v), 238 mM serine, and 6 mM sodium phytate, with or without 6.7 mM urea, were prepared and incubated without adjusting the initial pH to or near 7.0, except for salivary sediment mixed with deionized water, which was adjusted to pH 8.10 with 1 M NaOH. Determination of the pH of each of these experimental entities were carried out at pre-determined time intervals (i.e., at 0 min., 15 min., 30 min., 1 h, 2 h, 3 h, 4 h, and 21 h) with a pH meter (Radiometer Copenhagen, type PHM26, Radiometer America, Westlake, Ohio) and a combination pH electrode (Radiometer Analytical, Cedex, France).

In experiment [3] the test system is human salivary sediment. The experiment is described as follows: pH response of salivary sediment with serine, with or without sodium phytate and 6.7 mM urea. The protocol:
as §1, §2
Separately, incubation mixtures containing salivary sediment at 16.7% (v/v) and 6.7 or 8.3 mM serine in the presence or absence of 6.7 mM urea, 20 or 25 mM serine and/or 3 mM sodium phytate (Sigma-Aldrich, St. Louis, Mo.), both in the presence or absence of 6.7 mM urea were prepared. Mixtures were incubated overnight at 37° C. in a water bath incubator (Kleinberg, I. and Hall, G., 1968; Salako, N. O. and Kleinberg, I., 1989), after adjusting the initial pH to or near 7.0 with 1N NaOH or 1N HCl.
Separately, incubation mixtures containing salivary sediment at 16.7% (v/v), 20 or 25 mM serine, and 6 mM sodium phytate were prepared in the presence or absence of 6.7 mM urea. Mixtures were incubated overnight at 37° C. in a water bath incubator, after adjusting the initial pH to or near 7.0 with 1N NaOH or 1N HCl. […]

[4] abbreviates: 9 mM amino acid + 28 mM urea, 4 hours.
Setting [5] is: 9 mM amino acid + 28 mM urea, 21 hours (overnight).
The mark [6] stands for this setting: 9 mM amino acid, without urea, 21 hours (overnight).
The mark [7] stands for this setting: 90 mM amino acid + 28 mM urea, 4 hours.
Setting [8] is: 90 mM amino acid + 28 mM urea, 21 hours.
Where [9] appears, read: 120 mM amino acid + 28 mM urea, 4 hours.
The mark [10] stands for this setting: 120 mM amino acid + 28 mM urea, 21 hours.
[11] abbreviates: 9 mM amino acid, without urea, 4 hours.

Structures are written as SMILES.

Turning to `N[C@@H](CC(=O)O)C(=O)O` [aspartic acid], the “pH of salivary sediment” value in experiment [1] (setting [4]) came out at 8.90; in experiment [1] (setting [5]) it was 8.60; in experiment [1] (setting [6]) it was 7.00.
With `NCCCC[C@H](N)C(=O)O` [lysine], the “pH of salivary sediment” value in experiment [1] (setting [5]) was 8.70; in experiment [1] (setting [6]), “remained at neutrality”.
Consider `CSCC[C@H](N)C(=O)O` [methionine], for which the results for the “pH of salivary sediment” value in experiment [1] (setting [4]), in experiment [1] (setting [5]) and in experiment [1] (setting [6]) were 9.00, 8.90 and 6.20, respectively.
With `NCC(=O)O` [glycine], the “pH of salivary sediment” value is recorded as 8.72 in experiment [1] (setting [7]), 8.65 in experiment [1] (setting [8]), 8.90 in experiment [1] (setting [9]) and 8.55 in experiment [1] (setting [10]).
Take `N[C@@H](Cc1c[nH]c2ccccc12)C(=O)O` [tryptophan]: the “pH of salivary sediment” value in experiment [1] (setting [4]) is listed as 9.00; in experiment [1] (setting [5]), 8.90; in experiment [1] (setting [6]), 6.20.
As to `N[C@@H](CS)C(=O)O` [cysteine], the “pH of salivary sediment” value stood at 8.75 in experiment [1] (setting [4]), 8.55 in experiment [1] (setting [5]), 6.35 in experiment [1] (setting [11]) and 6.60 in experiment [1] (setting [6]).
Turning to `N=C(N)NCCC[C@H](N)C(=O)O` [arginine], the “pH of salivary sediment” value is on record as 8.80 in experiment [1] (setting [5]) and 7.97 in experiment [1] (setting [6]).
In the case of `CC[C@H](C)[C@H](N)C(=O)O` [isoleucine], the “pH of salivary sediment” value in experiment [1] (setting [4]) worked out at 8.90; in experiment [1] (setting [5]), 8.65; in experiment [1] (setting [11]) it was 6.40; in experiment [1] (setting [6]) it was 6.62.
In the same order, the values of `NC(=O)C[C@H](N)C(=O)O` [asparagine] are 8.90, 8.70, 6.55 and 7.35.
Take `N[C@@H](CSSC[C@H](N)C(=O)O)C(=O)O` [cystine]: the “pH of salivary sediment” value turned out to be 8.80 in experiment [1] (setting [4]), 8.50 in experiment [1] (setting [5]) and 6.35 in experiment [1] (setting [6]).
With `O=C(O)[C@@H]1CCCN1` [proline], the “pH of salivary sediment” value in experiment [1] (setting [4]) was 9.00; in experiment [1] (setting [5]), 8.80; in experiment [1] (setting [11]) it was 6.10; in experiment [1] (setting [6]) it was “remained about unchanged”.
For the compound `N[C@@H](Cc1ccc(O)cc1)C(=O)O` [tyrosine], the “pH of salivary sediment” value in experiment [1] (setting [4]) is on record as 8.87; in experiment [1] (setting [5]), 8.62.
With `C[C@H](N)C(=O)O` [alanine], the “pH of salivary sediment” value in experiment [1] (setting [7]) is 8.82; in experiment [1] (setting [8]) it was 8.80; in experiment [1] (setting [9]), 8.72; in experiment [1] (setting [10]) it was 8.67.
Consider `C[C@@H](O)[C@H](N)C(=O)O` [threonine], for which the “pH of salivary sediment” value in experiment [1] (setting [4]) is recorded as 8.90; in experiment [1] (setting [5]), 8.60; in experiment [1] (setting [11]), 6.20; in experiment [1] (setting [6]) it was “remained about unchanged”.
Regarding `NC(N)=O` [urea], the “pH of salivary sediment” value in experiment [1] (28 mM urea alone, 4 hours) was “about 9.0”; in experiment [1] (28 mM urea alone, 21 hours), 8.8.
With `CC(C)[C@H](N)C(=O)O` [valine], the “pH of salivary sediment” value is given as 8.90 in experiment [1] (setting [7]), 8.85 in experiment [1] (setting [8]), 8.80 in experiment [1] (setting [9]) and 8.70 in experiment [1] (setting [10]).
On to `N[C@@H](CO)C(=O)O` [serine], for which the “initial pH of incubation mixture” value worked out at 8.10 in experiment [2] (absence of urea, initial pH not adjusted) and 8.10 in experiment [2] (with urea, initial pH not adjusted to 7.00). For the same compound, the “pH of incubation mixture” value is 6.50 in experiment [2] (absence of urea, initial pH not adjusted, 21 hours) and 6.85 in experiment [2] (with urea, initial pH not adjusted, end of the incubation). In addition, the “pH of salivary sediment” value was 7.60 in experiment [3] (6.70 mM serine + 6.70 mM urea, 21 hours); 5.95 in experiment [3] (6.70 mM serine, without urea, 4 hours); 6.30 in experiment [3] (6.70 mM serine, without urea, 21 hours); 7.50 in experiment [3] (8.30 mM serine + 6.70 mM urea, 21 hours); 5.90 in experiment [3] (8.30 mM serine, without urea, 4 hours); 6.25 in experiment [3] (8.30 mM serine, without urea, 21 hours). The “pH of salivary sediment” value in experiment [3] (20 mM serine, absence of urea, 4 hours (FIG. 16, 6 mM sodium phytate series)) is 7.15; in experiment [3] (20 mM serine, absence of urea, 4 hours, initial pH 6.90 (FIG. 15, 3 mM sodium phytate series)), 6.20; in experiment [3] (20 mM serine, absence of urea, 21 hours (FIG. 15, 3 mM sodium phytate series)), 6.65; in experiment [3] (20 mM serine, absence of urea, 21 hours (FIG. 16, 6 mM sodium phytate series)), 6.47; in experiment [3] (25 mM serine, absence of urea, 4 hours (FIG. 16, 6 mM sodium phytate series)) it was 6.17; in experiment [3] (25 mM serine, absence of urea, 4 hours, initial pH 7.00 (FIG. 15, 3 mM sodium phytate series)) it was 6.17. The “pH of salivary sediment” value in experiment [3] (25 mM serine, absence of urea, 21 hours (FIG. 15, 3 mM sodium phytate series)) came out at 6.70; in experiment [3] (25 mM serine, absence of urea, 21 hours (FIG. 16, 6 mM sodium phytate series)) it was 6.45; in experiment [1] (setting [7]), 8.22; in experiment [1] (setting [9]) it was 8.30.
On to `N[C@@H](Cc1ccccc1)C(=O)O` [phenylalanine], for which the “pH of salivary sediment” value in experiment [1] (setting [4]) is 8.87; in experiment [1] (setting [5]), 8.65.
In the case of `CC(C)C[C@H](N)C(=O)O` [leucine], the “pH of salivary sediment” value stood at 8.85 in experiment [1] (setting [4]), 8.60 in experiment [1] (setting [5]), 6.15 in experiment [1] (setting [11]) and 6.40 in experiment [1] (setting [6]).
Consider `N[C@@H](Cc1c[nH]cn1)C(=O)O` [histidine], for which the results for the “pH of salivary sediment” value in experiment [1] (setting [8]) and in experiment [1] (setting [10]) were 8.30 and 8.22, respectively.
For `NC(=O)CC[C@H](N)C(=O)O` [glutamine], the “pH of salivary sediment” value in experiment [1] (setting [4]) was found to be 9.00; in experiment [1] (setting [5]), 8.80; in experiment [1] (setting [11]), 5.95; in experiment [1] (setting [6]) it was 6.25.
In the case of `N[C@@H](CCC(=O)O)C(=O)O` [glutamic acid], the “pH of salivary sediment” value was 8.90 in experiment [1] (setting [4]), 8.50 in experiment [1] (setting [5]) and 6.70 in experiment [1] (setting [6]).
